Measured values taken from publication PMC6045421 (ACS Omega, 2018).
Entries after “also recorded” stand apart in the source; their conditions may differ.

Legend:
recombinant human IRAP = recombinant human IRAP (Homo sapiens, UniProt Q9UIQ6); assay type: biochemical; settings: HEK293
aminopeptidase N (APN) = settings: cited from earlier work
[1] = test system: leukotriene A4 hydrolase (LTA4H); settings: cited from earlier work
[2] = test system: IRAP from Chinese hamster ovary (CHO) cells; settings: read-out: IC50 in CHO cells, hamster enzyme; cited from earlier work
[3] = test system: primary hippocampal neuron cultures; settings: primary hippocampal neuron cultures from mice; cited from earlier work
[4] = Stability in human liver microsomes; assay type: in vitro ADME; settings: HLM and MLM

Chain of recombinant human IRAP (Q9UIQ6 whole entry): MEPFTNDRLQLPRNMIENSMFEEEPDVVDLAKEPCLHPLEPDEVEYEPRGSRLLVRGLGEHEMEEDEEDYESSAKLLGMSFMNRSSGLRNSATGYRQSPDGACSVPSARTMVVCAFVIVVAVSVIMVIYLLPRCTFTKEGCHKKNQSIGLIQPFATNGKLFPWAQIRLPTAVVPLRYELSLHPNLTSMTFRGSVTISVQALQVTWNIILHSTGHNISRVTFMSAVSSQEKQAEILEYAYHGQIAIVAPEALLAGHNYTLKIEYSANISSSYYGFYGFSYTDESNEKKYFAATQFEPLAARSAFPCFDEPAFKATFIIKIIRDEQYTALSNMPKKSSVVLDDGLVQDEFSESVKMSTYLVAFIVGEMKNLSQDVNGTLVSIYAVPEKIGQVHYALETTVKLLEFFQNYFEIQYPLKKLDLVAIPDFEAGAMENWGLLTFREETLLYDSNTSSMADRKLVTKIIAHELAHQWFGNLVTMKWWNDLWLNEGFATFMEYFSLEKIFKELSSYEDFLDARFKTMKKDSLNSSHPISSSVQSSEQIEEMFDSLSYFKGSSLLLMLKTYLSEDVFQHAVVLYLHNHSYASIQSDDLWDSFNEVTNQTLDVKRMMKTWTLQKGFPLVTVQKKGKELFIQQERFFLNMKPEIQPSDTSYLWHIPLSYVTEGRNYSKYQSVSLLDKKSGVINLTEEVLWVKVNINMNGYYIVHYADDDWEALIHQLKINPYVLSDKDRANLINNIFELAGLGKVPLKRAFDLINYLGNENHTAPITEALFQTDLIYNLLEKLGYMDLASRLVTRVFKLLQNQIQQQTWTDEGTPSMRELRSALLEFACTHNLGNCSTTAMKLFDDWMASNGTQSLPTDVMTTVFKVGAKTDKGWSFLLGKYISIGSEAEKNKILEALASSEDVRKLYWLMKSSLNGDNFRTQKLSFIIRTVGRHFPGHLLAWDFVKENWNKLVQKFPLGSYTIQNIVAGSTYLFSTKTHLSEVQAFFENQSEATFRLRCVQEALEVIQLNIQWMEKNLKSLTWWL

Row | Compound | IRAP inhibition (in words) (recombinant human IRAP) | stability in the microsome assays (in words) [4] | inhibition of APN relative to IRAP (in words) (aminopeptidase N (APN)) | inhibition of LTA4H relative to IRAP (in words) [1] | IC50 [2] | density of dendritic spines (in words) [3]
1 | O=C(Nc1cccc(-c2nnn[nH]2)c1)c1cc(Br)c(Cl)s1 [Compound 12] | complete lack of inhibitory activity |  |  |  |  | 
2 | O=S(=O)(Nc1cccc(-c2nnn[nH]2)c1)c1cc(Cl)c(Cl)s1 [Compound 13] | submicromolar activity |  |  |  |  | 
3 | O=S(=O)(Nc1cccc(-c2nnn[nH]2)c1)c1ccc(-c2ccccc2)cc1 [Compound 20] | totally inactive |  |  |  |  | 
4 | O=S(=O)(Nc1cccc(-c2nnn[nH]2)c1)c1ccc(Cl)c2nonc12 [Compound 21] | submicromolar |  | much lower efficacy | much lower efficacy |  | 
5 | O=S(=O)(Nc1cccc(-c2nnn[nH]2)c1)c1cc(C(F)(F)F)ccc1C(F)(F)F [Compound 29, N-(3-(1H-Tetrazol-5-yl)phenyl)-2,5-bis(trifluoromethyl)benzenesulfonamide] | submicromolar potency; also recorded: submicromolar affinity | high metabolic stability |  |  |  | 

The next lines start with results.

Row | IRAP inhibition (in words) (recombinant human IRAP) | stability in the microsome assays (in words) [4] | Compound | inhibition of APN relative to IRAP (in words) (aminopeptidase N (APN)) | inhibition of LTA4H relative to IRAP (in words) [1] | IC50 [2] | density of dendritic spines (in words) [3]
6 | submicromolar potency |  | Cc1ccc(S(=O)(=O)Nc2cccc(-c3nnn[nH]3)c2)cc1C [Compound 25] | much lower efficacy | much lower efficacy | 3.1 µM | enhance the density of dendritic spines
7 | submicromolar potency |  | O=S(=O)(Nc1cccc(-c2nnn[nH]2)c1)c1cc(Cl)c(Cl)cc1Cl [Compound 26] | much lower efficacy | much lower efficacy | 2.9 µM | enhance the density of dendritic spines
